In ChEMBL document CHEMBL5137058, “Therapeutic Strategies to Target the Androgen Receptor” (J Med Chem, 2022):

Tests used:
[1] = target: T1, Protein cereblon/Androgen receptor/Cullin-4A (Homo sapiens, UniProt P10275+Q96SW2+Q13619); experiment: Protac activity at CRBN/Cullin 4A/Androgen receptor in human VCaP cells assessed as Androgen receptor degradation; assay type: cell-based
[2] = target: T1, Protein cereblon/Androgen receptor/Cullin-4A; experiment: Protac activity at CRBN/Cullin 4A/Androgen receptor in human LNCaP cells assessed as Androgen receptor degradation; assay type: cell-based
[3] = Oral bioavailability in mouse; assay type: ADME, organism-based; settings: in vivo
[4] = target: Androgen receptor (Homo sapiens, UniProt P10275, T878A); experiment: Binding affinity to bicalutamide-resistant Androgen receptor T878A mutant (unknown origin)
Androgen receptor (Homo sapiens, UniProt P10275, T878A), sequence (P10275 whole entry T878A): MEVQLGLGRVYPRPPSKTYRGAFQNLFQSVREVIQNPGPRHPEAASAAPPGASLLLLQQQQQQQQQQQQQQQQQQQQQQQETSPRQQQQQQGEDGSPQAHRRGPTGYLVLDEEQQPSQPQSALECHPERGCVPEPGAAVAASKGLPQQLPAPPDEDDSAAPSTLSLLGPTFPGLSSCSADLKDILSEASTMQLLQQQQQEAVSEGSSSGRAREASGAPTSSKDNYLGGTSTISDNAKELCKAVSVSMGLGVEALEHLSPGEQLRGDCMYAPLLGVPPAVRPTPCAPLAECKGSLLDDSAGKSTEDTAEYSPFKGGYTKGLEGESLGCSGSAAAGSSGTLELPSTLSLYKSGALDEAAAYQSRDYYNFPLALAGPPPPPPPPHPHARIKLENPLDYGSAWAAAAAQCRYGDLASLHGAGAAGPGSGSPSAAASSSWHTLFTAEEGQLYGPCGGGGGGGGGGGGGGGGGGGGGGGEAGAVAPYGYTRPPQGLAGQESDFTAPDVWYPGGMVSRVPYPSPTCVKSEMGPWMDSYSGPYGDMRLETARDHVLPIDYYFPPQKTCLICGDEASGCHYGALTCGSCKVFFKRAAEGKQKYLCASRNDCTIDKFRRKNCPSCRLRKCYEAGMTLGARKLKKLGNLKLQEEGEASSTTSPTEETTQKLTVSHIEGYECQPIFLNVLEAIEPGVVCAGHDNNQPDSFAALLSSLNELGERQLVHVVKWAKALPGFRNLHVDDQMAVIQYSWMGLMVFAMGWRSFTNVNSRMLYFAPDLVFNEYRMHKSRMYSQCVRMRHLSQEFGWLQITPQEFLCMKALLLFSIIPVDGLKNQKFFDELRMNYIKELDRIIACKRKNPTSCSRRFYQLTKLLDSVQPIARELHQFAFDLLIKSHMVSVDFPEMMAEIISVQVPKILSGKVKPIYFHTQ

[5] = tested on: SC-3; experiment: Antiproliferative activity against mouse SC-3 cells; assay type: functional, cell-based
[6] = target: T2, Androgen receptor (Homo sapiens, UniProt P10275); experiment: Binding affinity to human Androgen receptor
T2 sequence (P10275 whole entry): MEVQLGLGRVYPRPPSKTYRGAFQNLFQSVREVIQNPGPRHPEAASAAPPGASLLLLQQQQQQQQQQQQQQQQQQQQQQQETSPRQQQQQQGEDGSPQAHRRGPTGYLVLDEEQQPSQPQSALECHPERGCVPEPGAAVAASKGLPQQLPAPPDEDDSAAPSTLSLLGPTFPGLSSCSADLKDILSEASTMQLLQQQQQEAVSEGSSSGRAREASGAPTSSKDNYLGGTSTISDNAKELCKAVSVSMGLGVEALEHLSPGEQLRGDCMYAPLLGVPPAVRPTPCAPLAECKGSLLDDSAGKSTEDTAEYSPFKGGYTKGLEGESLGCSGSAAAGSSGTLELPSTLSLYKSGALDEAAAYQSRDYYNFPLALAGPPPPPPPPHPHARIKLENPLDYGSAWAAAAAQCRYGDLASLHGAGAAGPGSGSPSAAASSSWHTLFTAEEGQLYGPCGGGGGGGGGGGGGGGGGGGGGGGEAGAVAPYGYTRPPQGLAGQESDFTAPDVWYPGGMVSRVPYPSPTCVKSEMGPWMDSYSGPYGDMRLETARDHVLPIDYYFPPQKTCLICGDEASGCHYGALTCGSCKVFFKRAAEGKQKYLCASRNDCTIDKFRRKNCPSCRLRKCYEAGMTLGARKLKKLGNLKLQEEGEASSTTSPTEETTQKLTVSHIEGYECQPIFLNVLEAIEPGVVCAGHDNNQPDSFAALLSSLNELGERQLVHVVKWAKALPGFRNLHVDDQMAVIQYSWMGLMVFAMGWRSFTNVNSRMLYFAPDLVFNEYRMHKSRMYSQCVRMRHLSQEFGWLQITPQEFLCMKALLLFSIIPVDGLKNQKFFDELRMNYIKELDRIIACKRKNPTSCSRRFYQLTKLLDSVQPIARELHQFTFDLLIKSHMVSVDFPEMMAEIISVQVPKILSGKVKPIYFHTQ

[7] = target: T2, Androgen receptor; experiment: Antagonist activity at Androgen receptor in human MDA-MB-453 cells measured by SEAP reporter gene assay; assay type: cell-based
[8] = target: T2, Androgen receptor; experiment: Displacement of [3H]DHT from Androgen receptor expressed in human MDA-MB-453 cells; assay type: cell-based
[9] = tested on: Rattus norvegicus; experiment: Anti-androgenic activity in testosterone-treated castrated rat assessed as reduction in prostate weight at 2 mg administered orally per day for 5 days; assay type: functional; parameters: Activity: scale not given: the % may be the effect or the level left; settings: route po, time 5 day
[10] = tested on: LNCaP; experiment: Antiproliferative activity against human LNCaP cells; assay type: functional, cell-based
[11] = target: T3, Androgen receptor (Homo sapiens) (UniProt P10275); experiment: Agonist activity at androgen receptor (unknown origin) at 1 uM relative to control; settings: filed as agonist
T3 sequence (whole entry): T2 sequence (P10275 whole entry)

[12] = In vivo antagonist activity at Androgen receptor assessed as reduction in wax ester in golden hamster ear model; assay type: functional, Cricetinae; parameters: concentration or dose not given beside the values
[13] = target: Androgen receptor (Rattus norvegicus, UniProt P15207); experiment: Binding affinity to rat Androgen receptor in African green monkey COS-7 cells measured by whole-cell binding assay; assay type: cell-based
Androgen receptor (Rattus norvegicus, UniProt P15207), sequence (P15207 whole entry S389L): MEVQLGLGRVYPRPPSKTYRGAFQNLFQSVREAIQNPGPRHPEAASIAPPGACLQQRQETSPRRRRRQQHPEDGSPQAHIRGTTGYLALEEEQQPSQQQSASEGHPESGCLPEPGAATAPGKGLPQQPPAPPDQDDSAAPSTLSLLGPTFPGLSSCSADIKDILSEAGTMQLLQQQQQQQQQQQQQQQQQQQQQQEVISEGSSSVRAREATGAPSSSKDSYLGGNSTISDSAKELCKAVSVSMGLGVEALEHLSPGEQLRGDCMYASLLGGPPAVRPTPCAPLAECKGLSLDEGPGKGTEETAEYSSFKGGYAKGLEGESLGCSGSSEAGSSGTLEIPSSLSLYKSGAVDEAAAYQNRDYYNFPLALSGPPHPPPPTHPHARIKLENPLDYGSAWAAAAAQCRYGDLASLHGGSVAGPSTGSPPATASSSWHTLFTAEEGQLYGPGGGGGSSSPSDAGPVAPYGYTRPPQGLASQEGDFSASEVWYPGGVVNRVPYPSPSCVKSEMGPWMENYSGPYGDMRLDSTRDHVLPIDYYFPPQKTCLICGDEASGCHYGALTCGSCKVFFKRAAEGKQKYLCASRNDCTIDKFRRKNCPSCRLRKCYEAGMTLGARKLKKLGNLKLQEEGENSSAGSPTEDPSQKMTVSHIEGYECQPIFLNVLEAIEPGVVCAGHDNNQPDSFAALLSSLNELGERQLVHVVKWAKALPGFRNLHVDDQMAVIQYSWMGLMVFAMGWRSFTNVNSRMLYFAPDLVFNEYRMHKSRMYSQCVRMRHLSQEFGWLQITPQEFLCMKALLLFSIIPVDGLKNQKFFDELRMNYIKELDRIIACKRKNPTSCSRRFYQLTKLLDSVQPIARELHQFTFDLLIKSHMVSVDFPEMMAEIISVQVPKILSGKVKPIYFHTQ

[14] = target: T2, Androgen receptor; experiment: Agonist activity at human Androgen receptor expressed in human MDA-MB-453 cells cotransfected with MMTV-Luc assessed as transactivation modulation of AR measured by luciferase reporter assay; assay type: cell-based
[15] = target: T3, Androgen receptor (Homo sapiens); experiment: Agonist activity at human Androgen receptor expressed in human MDA-MB-453 cells cotransfected with MMTV-Luc assessed as transactivation modulation of AR measured by luciferase reporter assay relative to control; assay type: cell-based; settings: filed as agonist
[16] = target: T2, Androgen receptor; experiment: Displacement of [3H]methyltrienolone from Androgen receptor expressed in human MDA-MB-453 cells; assay type: cell-based
[17] = Antiproliferative activity against refractory human prostate cancer cells; assay type: functional, cell-based; settings: Prostate tumor cell line
[18] = target: T3, Androgen receptor (Homo sapiens); experiment: Induction of degradation of Androgen receptor (unknown origin) at 7.5 uM
[19] = tested on: Androgen receptor (Homo sapiens), P10275 [UNDEFINED MUTATION]; experiment: Induction of degradation of Androgen receptor splice variant 3 (unknown origin) at 7.5 uM
[20] = target: T2, Androgen receptor; experiment: Binding affinity to Androgen receptor (unknown origin); settings: read-out: IC50
[21] = target: T2, Androgen receptor; experiment: Partial agonist activity at human Androgen receptor
[22] = target: T2, Androgen receptor; experiment: Antagonist activity at Androgen receptor in human LNCaP cells measured by SEAP reporter gene assay; assay type: cell-based
[23] = target: T2, Androgen receptor; experiment: Agonist activity to human Androgen receptor in African green monkey COS-7 cells measured by luciferase reporter assay; assay type: cell-based
[24] = target: GABA-A receptor; anion channel; experiment: Binding affinity to GABA A receptor (unknown origin); assay type: protein-complex assay, Homo sapiens

T1 sequence (Q96SW2 whole entry, one chain of several): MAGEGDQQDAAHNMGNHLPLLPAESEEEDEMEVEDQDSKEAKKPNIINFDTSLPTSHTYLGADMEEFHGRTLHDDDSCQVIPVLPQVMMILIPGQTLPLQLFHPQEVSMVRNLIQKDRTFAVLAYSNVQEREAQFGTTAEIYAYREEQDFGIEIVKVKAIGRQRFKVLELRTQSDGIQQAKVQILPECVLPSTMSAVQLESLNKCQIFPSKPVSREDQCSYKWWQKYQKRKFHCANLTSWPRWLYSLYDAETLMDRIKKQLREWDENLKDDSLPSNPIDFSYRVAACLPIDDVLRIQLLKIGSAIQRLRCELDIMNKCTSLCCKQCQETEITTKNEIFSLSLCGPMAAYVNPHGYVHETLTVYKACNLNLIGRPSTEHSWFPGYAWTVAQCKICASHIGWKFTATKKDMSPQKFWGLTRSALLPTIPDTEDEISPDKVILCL
T1 sequence (Q13619 whole entry, one chain of several): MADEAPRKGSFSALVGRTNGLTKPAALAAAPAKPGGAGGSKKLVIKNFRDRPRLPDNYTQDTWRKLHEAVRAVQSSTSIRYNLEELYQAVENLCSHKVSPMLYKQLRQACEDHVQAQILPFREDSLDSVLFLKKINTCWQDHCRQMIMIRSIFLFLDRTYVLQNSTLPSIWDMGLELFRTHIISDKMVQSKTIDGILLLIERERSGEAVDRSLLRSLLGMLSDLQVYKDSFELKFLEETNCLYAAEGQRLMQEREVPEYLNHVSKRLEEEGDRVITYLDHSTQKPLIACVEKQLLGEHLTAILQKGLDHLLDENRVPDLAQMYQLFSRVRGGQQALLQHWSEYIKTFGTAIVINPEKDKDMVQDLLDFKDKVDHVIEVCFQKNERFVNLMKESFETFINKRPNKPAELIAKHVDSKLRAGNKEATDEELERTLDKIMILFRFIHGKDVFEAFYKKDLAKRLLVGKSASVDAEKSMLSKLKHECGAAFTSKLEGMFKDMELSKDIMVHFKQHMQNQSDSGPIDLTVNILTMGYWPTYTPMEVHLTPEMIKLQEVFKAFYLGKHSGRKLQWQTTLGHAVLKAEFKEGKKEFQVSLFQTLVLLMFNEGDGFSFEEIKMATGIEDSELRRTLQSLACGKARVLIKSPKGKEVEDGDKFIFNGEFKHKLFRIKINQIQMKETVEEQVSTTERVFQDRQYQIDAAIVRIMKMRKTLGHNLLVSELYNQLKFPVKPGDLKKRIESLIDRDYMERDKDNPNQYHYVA

Work on `CN(c1ccc(C#N)c(Cl)c1)[C@H]1CC[C@H](NC(=O)c2ccc(N3CCN(C4CN(c5ccc6c(c5)C(=O)N(C5CCC(=O)NC5=O)C6=O)C4)CC3)cc2)CC1` (some centres undefined) yielded a DC50 [1] of less than 0.0001 µM, a DC50 [2] of less than 0.0001 µM and a bioavailability [3] of 51%.

In the case of `Cn1cc(N(Cc2ccccc2)c2ccc([N+](=O)[O-])cc2)cc1C(=O)N1CCCC1`, the Ki [4] is reported as 0.006 µM and the IC50 [5] is reported as 0.44 µM.

Compound `C[C@]12COC(=O)C[C@@H]1CC[C@@H]1[C@@H]2CC[C@@]2(C)[C@H]1CC[C@]2(C)O` [OXANDROLONE] has a Ki [6] of 0.062 µM.

Work on `C[C@@]12O[C@@](C)(C[C@H]1O)[C@@H]1C(=O)N(c3ccc(C#N)c(I)c3)C(=O)[C@@H]12` yielded an IC50 [7] of 0.019 µM and a Ki [8] of 0.0024 µM.

`Cc1c(C(C)(O)C(F)(F)F)[nH]c2cc(C(F)(F)F)c(C#N)cc12` (centres undefined) showed an ID50 [9] of 0.13 mg/day and an Activity ([9]; at 2 mg) of 80%.

In the case of `CC1(C)C(=O)N(c2ccc(C#N)c(Cl)c2)C(=S)N1CCCS(N)(=O)=O`, the IC50 [10] is reported as 0.41 µM.

`CC1(C)CN(CCC#N)C(=O)[C@@H]1Oc1ccc(C#N)c(C(F)(F)F)c1` showed an Activity [11] of 89%.

`N#Cc1ccc(O[C@@H]2CCCC[C@H]2C#N)cc1C(F)(F)F` showed an Activity [12] of 64%.

Work on `OC1(C(F)(F)F)CCCC2c3cc(Cl)c(Cl)cc3NC21` (centres undefined) yielded an IC50 [13] of 0.027 µM.

In the case of `CN1C(=O)C(F)=C[C@]2(C)[C@H]3CC[C@]4(C)[C@@H](O)/C(=C/c5cncnc5)C[C@H]4[C@@H]3CC[C@@H]12`, the EC50 [14] is reported as 0.017 µM, the Activity [15] is reported as 141% and the IC50 [16] is reported as 0.059 µM.

In the case of `CC1(C)CN(Cc2ccccc2)C(=O)[C@@H]1Oc1ccc(C#N)c(C(F)(F)F)c1`, the Activity [12] is reported as 78%.

With `O=c1[nH]nc(Cc2c(Cl)cccc2Cl)c2ccccc12` the IC50 [10] was 0.56 µM and the IC50 [5] was 0.18 µM.

For `COc1cc(N2C(=O)C(C)(C)c3cc(-c4cccnc4OC)ccc32)ccc1C#N`, the IC50 [17] was 0.0796 µM.

`COc1ccc(/C=C/C(=O)/C=C(O)/C=C/c2ccc(OC)c(OC)c2)cc1OC` gave an Activity [18] greater than 80% and an Activity [19] greater than 80%.

For `CC(O)(COC(=O)c1ccccc1C(F)(F)F)c1cc2cc([N+](=O)[O-])c(C(F)(F)F)cc2[nH]1` (centres undefined), the IC50 [20] was 0.14 µM.

For `N#Cc1ccc(N2C(=O)N[C@@](CO)(c3ccccc3)C2=O)cc1C(F)(F)F`, the IC50 [21] was 0.013 µM.

`Cc1ccccc1Sc1ccc(C#N)cc1Cl` gave an Activity [12] greater than 80%.

In the case of `C[C@@]1(c2ccc(O)cc2)NC(=O)N(c2ccc(C#N)c(C(F)(F)F)c2)C1=O`, the IC50 [21] is reported as 0.0009 µM.

`N#CCC(O)(c1nc2cc(Cl)c(Cl)cc2[nH]1)C(F)(F)F` (centres undefined) showed an IC50 [20] of 0.002 µM.

`CCCCc1ccc(OC(=O)N2C[C@@H]3C[C@H]2[C@@H]2C(=O)N(c4ccc([N+](=O)[O-])c5ccccc45)C(=O)N32)cc1` showed an IC50 [7] of 0.06 µM, an IC50 [22] of 4.75 µM and a Ki [8] of 0.073 µM.

`C[C@H]1[C@@H](O)CCN1c1ccc(C#N)c2ccccc12` showed an EC50 [23] of 0.00032 µM and an IC50 [6] of 0.0024 µM.

`CC1(C)CN(CCC#N)C(=O)[C@@H]1Oc1ccc(C#N)c(Cl)c1` gave an Activity [11] of 89%.

Work on `CNC(=O)c1ccc(N2C(=S)N(c3ccc(C#N)c(C(F)(F)F)c3)C(=O)C2(C)C)cc1F` [ENZALUTAMIDE] yielded an IC50 [10] of 0.036 µM and an IC50 [24] of 3 µM.

`CC(C)N1C[C@@]2(C)O[C@](C)(C1)[C@H]1C(=O)N(c3ccc(C#N)c(C(F)(F)F)c3)C(=O)[C@H]12` gave an IC50 [7] of 0.032 µM, an IC50 [22] of 0.125 µM and a Ki [8] of 0.014 µM.
